The values below come from patent US20260184663A1, “INDENE COMPOUNDS, PHARMACEUTICAL COMPOSITIONS THEREOF, AND THEIR THERAPEUTIC APPLICATIONS” (NucMito Pharmaceuticals co. Ltd., priority 2022, published 2026).

Common to all, as to type: cell-based
The subject of one experiment is HeLa (cervical cancer). Put plainly: Antiproliferative activity (CCK-8 cell viability), HeLa. The note with it: Homo sapiens, 72 h; for inhibition at 3.3 µM: Compound concentration: 3.3 μM; for inhibition at 10 µM: Compound concentration: 10 μM; for inhibition at 30 µM: Compound concentration: 30 μM. The method, boiled down:
(§1)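 Cells grown in DMEM (HepG2, SW480), MEM (HeLa) or F-12K (A549), each with 10% FBS, then exposed to compound at 3.3, 10 or 30 μM for 72 h at 37 °C. CCK-8 absorbance at 450 nm; viability expressed as percent of DMSO-treated cells, graded as growth inhibition bands.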

Experiment [1] concerns B16F10 (malignant melanoma). Put plainly: Antiproliferative activity (CCK-8 cell viability), B16F10. The note with it: Mus musculus, 72 h, read-out: Antiproliferative activity in cancerous cells, B16F10 (inhibition of cell growth); for inhibition at 3.3 µM: B16-F10, Compound concentration: 3.3 μM; for inhibition at 10 µM: B16-F10, Compound concentration: 10 μM; for inhibition at 30 µM: B16-F10, Compound concentration: 30 μM. The method, boiled down:
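B16F10 melanoma cells grown in DMEM with 10% FBS were plated in 96-well plates at 2,000-5,000 cells/well. After attachment they were exposed to compound in medium for 72 h at 37° C. CCK-8 solution (10 μL) was then added, and after 4 h at 37° C absorbance was read at 450 nm.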

In another experiment the test system is SW480 (colon cancer). Put plainly: Antiproliferative activity (CCK-8 cell viability), SW480. The note with it: Homo sapiens, 72 h, read-out: Antiproliferative activity in cancerous cells, SW480 (inhibition of cell growth); for inhibition at 3.3 µM: Compound concentration: 3.3 μM; for inhibition at 10 µM: Compound concentration: 10 μM; for inhibition at 30 µM: Compound concentration: 30 μM. The method, boiled down:
as §1

For experiment [2], the system named is A549 (lung adenocarcinoma). Put plainly: Antiproliferative activity (CCK-8 cell viability), A549. Particulars: Homo sapiens, 72 h; for inhibition at 3.3 µM: Compound concentration: 3.3 μM; for inhibition at 10 µM: Compound concentration: 10 μM; for inhibition at 30 µM: Compound concentration: 30 μM. The method, boiled down:
as §1

Experiment [3] concerns alpha-smooth muscle actin (α-SMA). Kind of experiment: Inhibition of TGF-β induced expression of alpha-smooth muscle actin (α-SMA) in CFSC cells (western blot). The note with it: compound at 10 μM, TGF-β (10 ng/mL), 24 hours, band intensity vs TGF-β only. The method, boiled down: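 CFSC hepatic stellate cells in serum-free DMEM treated 24 h at 37 °C with compound at 10 μM plus TGF-β (10 ng/mL). α-SMA measured by Western blot with β-actin, ECL detection, densitometry. Percent inhibition is decrease in band intensity versus TGF-β-only cells.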
A general note: A western blot detects proteins with antibodies after separation by electrophoresis.

The next experiment deals with HepG2 (liver cancer). Put plainly: Antiproliferative activity (CCK-8 cell viability), HepG2. The note with it: Homo sapiens, 72 h; for inhibition at 3.3 µM: Compound concentration: 3.3 μM; for inhibition at 10 µM: Compound concentration: 10 μM; for inhibition at 30 µM: Compound concentration: 30 μM. The method, boiled down:
as §1

The test system of experiment [4] is MDA-MB-231 (breast cancer). Put plainly: Antiproliferative activity (CCK-8 cell viability), MDA-MB-231. The note with it: Homo sapiens, 72 h; for inhibition at 3.3 µM: Compound concentration: 3.3 μM; for inhibition at 10 µM: Compound concentration: 10 μM; for inhibition at 30 µM: Compound concentration: 30 μM. The method, boiled down: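 MDA-MB-231 breast cancer cells, grown in DMEM with 10% FBS, were plated in 96-well plates at 2,000-5,000 cells/well. Once attached, they were exposed to compound and incubated at 37° C. for 72 h. Viability was then measured with CCK-8 (10 μL per well, 4 h at 37° C.) by absorbance at 450 nm, relative to DMSO vehicle wells.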

The test system of experiment [5] is A431 (epidermoid carcinoma). Put plainly: Antiproliferative activity (CCK-8 cell viability), A431. Particulars: Homo sapiens, 72 h, read-out: Antiproliferative activity in cancerous cells, A431 (inhibition of cell growth); for inhibition at 3.3 µM: A-431, Compound concentration: 3.3 μM; for inhibition at 10 µM: A-431, Compound concentration: 10 μM; for inhibition at 30 µM: A-431, Compound concentration: 30 μM. The method, boiled down: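 A431 epidermoid carcinoma cells grown in DMEM with 10% FBS were plated at 2,000-5,000 cells/well in 96-well plates. After attachment they were exposed to compound at 3.3 μM, 10 μM, or 30 μM for 72 h at 37° C. Viability was then assessed by CCK-8 against DMSO vehicle-treated wells.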

Setting [6] is: read-out: Antiproliferative activity in cancerous cells, HELA (inhibition of cell growth).
The mark [7] stands for this setting: read-out: Antiproliferative activity in cancerous cells, A549 (inhibition of cell growth).
Where [8] appears, read: read-out: Antiproliferative activity in cancerous cells, HepG2 (inhibition of cell growth).
[9] abbreviates: read-out: Antiproliferative activity in cancerous cells, MDA-MB-231 (inhibition of cell growth).

Molecules are shown by their SMILES. Read-outs that look alike come from different tables or passages of the source.

For the compound `CC1=C(CC(=O)O)c2cc(C)ccc2/C1=C\c1ccc(COc2ccccc2)cc1` [B4, (Z)-2-(2,5-Dimethyl-1-(4-(phenoxymethyl)benzylidene)-1H-inden-3-yl)acetic acid], the inhibition at 3.3 µM in the experiment on HeLa (cervical cancer) (setting [6]) was below 30%; in experiment [1] it was at least 50%; in the experiment with SW480 (colon cancer), below 30%; in experiment [2] (setting [7]), 30 to 50%; in the experiment on HepG2 (liver cancer) (setting [8]) it was 30 to 50%; in experiment [4] (setting [9]) it was 30 to 50%. Moreover, in experiment [5], the inhibition at 3.3 µM is at least 50%. In addition, the inhibition at 10 µM was 30 to 50% with HeLa (cervical cancer) (setting [6]); at least 50% in experiment [1]; 30 to 50% in the experiment with SW480 (colon cancer); 30 to 50% in experiment [2] (setting [7]); below 30% in experiment [3]; below 30% in the experiment with HepG2 (liver cancer) (setting [8]). Moreover, the inhibition at 10 µM in experiment [4] (setting [9]) was 30 to 50%; in experiment [5], below 30%. The inhibition at 30 µM in the experiment on HeLa (cervical cancer) (read-out: Antiproliferative activity in cancerous cells, HELA) is 30 to 50%; in experiment [2] (read-out: Antiproliferative activity in cancerous cells, A549) it was 30 to 50%; in the experiment on HepG2 (liver cancer) (read-out: Antiproliferative activity in cancerous cells, HepG2), below 30%; in experiment [4] (read-out: Antiproliferative activity in cancerous cells, MDA-MB-231), below 30%.
For `CC1=C(Cc2noc(=O)[nH]2)c2cc(F)ccc2/C1=C\c1cccc(Oc2ccccc2)c1` [C32, (Z)-3-((5-Fluoro-2-methyl-1-(3-phenoxybenzylidene)-1H-inden-3-yl)methyl)-1,2,4-oxadiazol-5(4H)-one], the inhibition at 3.3 µM is below 30% with HeLa (cervical cancer) (setting [6]); below 30% in experiment [1]; below 30% in the experiment on SW480 (colon cancer); below 30% in experiment [2] (setting [7]); below 30% in the experiment with HepG2 (liver cancer) (setting [8]); at least 50% in experiment [4] (setting [9]). The inhibition at 3.3 µM in experiment [5] is below 30%. In addition, the inhibition at 10 µM was 30 to 50% with HeLa (cervical cancer) (setting [6]); 30 to 50% in experiment [1]; below 30% with SW480 (colon cancer); below 30% in experiment [2] (setting [7]); below 30% in experiment [3]; below 30% in the experiment with HepG2 (liver cancer) (setting [8]). The inhibition at 10 µM in experiment [4] (setting [9]) was at least 50%; in experiment [5], below 30%.
Turning to `CC1=C(CC(=O)O)c2cc(F)cc(F)c2/C1=C/c1cccc(COc2ccccc2)c1` [E7, (E)-2-(5,7-Difluoro-2-methyl-1-(3-(phenoxymethyl)benzylidene)-1H-inden-3-yl)-acetic acid], the inhibition at 3.3 µM is at least 50% with HeLa (cervical cancer) (setting [6]); below 30% in experiment [1]; at least 50% with SW480 (colon cancer); at least 50% in experiment [2] (setting [7]); 30 to 50% in the experiment with HepG2 (liver cancer) (setting [8]); below 30% in experiment [4] (setting [9]). In addition, the inhibition at 3.3 µM in experiment [5] lay in the range of 30 to 50%. Also, the inhibition at 10 µM in the experiment with HeLa (cervical cancer) (setting [6]) is at least 50%; in experiment [1], below 30%; in the experiment on SW480 (colon cancer) it was at least 50%; in experiment [2] (setting [7]) it was at least 50%; in experiment [3], above 80%; in the experiment with HepG2 (liver cancer) (setting [8]), at least 50%. The inhibition at 10 µM in experiment [4] (setting [9]) and in experiment [5] was at least 50% in each case. Moreover, the inhibition at 30 µM (in the experiment with HeLa (cervical cancer) (setting [6]); in experiment [1]; in the experiment on SW480 (colon cancer); in experiment [2] (setting [7]); in the experiment on HepG2 (liver cancer) (setting [8]); in experiment [4] (setting [9])) was at least 50% throughout. Besides, in experiment [5], the inhibition at 30 µM was at least 50%.
On to `COc1ccc2c(c1)/C(=C\c1cccc(COc3ccccc3)c1)C(C)=C2CC(=O)O` [B8, (Z)-2-(6-Methoxy-2-methyl-1-(3-(phenoxymethyl)benzylidene)-1H-inden-3-yl)-acetic acid], for which the inhibition at 3.3 µM was 30 to 50% in the experiment with HeLa (cervical cancer) (setting [6]); below 30% in experiment [1]; at least 50% in the experiment with SW480 (colon cancer); at least 50% in experiment [2] (setting [7]); 30 to 50% in the experiment on HepG2 (liver cancer) (setting [8]); below 30% in experiment [4] (setting [9]). The inhibition at 3.3 µM in experiment [5] was in the range of 30 to 50%. Besides, the inhibition at 10 µM in the experiment on HeLa (cervical cancer) (setting [6]) was at least 50%; in experiment [1] it was at least 50%; in the experiment on SW480 (colon cancer) it was at least 50%; in experiment [2] (setting [7]), at least 50%; in experiment [3], above 80%; with HepG2 (liver cancer) (setting [8]), 30 to 50%. Besides, the inhibition at 10 µM is 30 to 50% in experiment [4] (setting [9]) and at least 50% in experiment [5].
Take `CC1=C(CC(=O)O)c2c(F)ccc(F)c2/C1=C/c1cccc(C(F)(F)F)c1` [E13, (E)-2-(4,7-Difluoro-2-methyl-1-(3-(trifluoromethyl)benzylidene)-1H-inden-3-yl)-acetic acid]: the inhibition at 3.3 µM with HeLa (cervical cancer) (setting [6]) is 30 to 50%; in experiment [1], below 30%; in the experiment with SW480 (colon cancer), below 30%; in experiment [2] (setting [7]), below 30%; in the experiment with HepG2 (liver cancer) (setting [8]) it was below 30%; in experiment [4] (setting [9]) it was below 30%. In addition, the inhibition at 3.3 µM in experiment [5] is below 30%. The inhibition at 10 µM with HeLa (cervical cancer) (setting [6]) was 30 to 50%; in experiment [1], at least 50%; in the experiment with SW480 (colon cancer), below 30%; in experiment [2] (setting [7]), at least 50%; in experiment [3] it was below 30%; in the experiment with HepG2 (liver cancer) (setting [8]), below 30%. The figures for the inhibition at 10 µM in experiment [4] (setting [9]) and in experiment [5] were below 30% and 30 to 50%, respectively. The inhibition at 30 µM in the experiment with HeLa (cervical cancer) (setting [6]) was at least 50%; in experiment [1], at least 50%; with SW480 (colon cancer), below 30%; in experiment [2] (setting [7]) it was at least 50%; with HepG2 (liver cancer) (setting [8]), below 30%; in experiment [4] (setting [9]) it was below 30%. Further, the inhibition at 30 µM in experiment [5] was at least 50%.
